Converted amounts (≈) assume the structure as drawn. Counter-ions that a name gives are not always drawn.
How the values were obtained:
[1] = Solubilities of active ingredients in carvacrol or carvacrol-containing (or thymol) formulations; assay type: physicochemical
Source text: The mixing ratios are always given as volume proportions. Liqui-Patch® are formulations of ready-to-use mixtures of polymers and other additives for making transdermal systems and are obtainable from the company epinamics GmbH. In the formulation employed here, Liqui-Patch® contains the following components: mixture of 10 g triethyl citrate, 100 g water (demineralized or medical), 100 g DynamX®, 790 g ethanol.

[2] = Volatility of carvacrol with different admixtures (spots on glass plate at 35° C., recovery); assay type: physicochemical; settings: for V.C. 30 min. (volatile carvacrol) / V.C. 3 h (volatile carvacrol): carvacrol 20%, remainder ethanol, 35° C.
Method: For testing whether carvacrol is suitable for transdermal systems or whether carvacrol is contained sufficiently long in transdermal systems, the volatility was investigated with different admixtures. The volatility is important, in order to keep the active ingredients sufficiently long in solution in the film.
For the measurement, two spots of 5 μl of each formulation, containing 1 mg carvacrol, were applied per point of time on a glass plate kept at 35° C. Two spots of a respective point of time (30 min. and 3 h after application of the spot) were wiped off with a cotton applicator. The amount of wiped-off carvacrol was determined. The difference to 100% intended recovery rate is the volatile carvacrol. The abbreviation V. refers to “volatile”, the abbreviation C. refers to carvacrol. The share of carvacrol is always 20%, the remainder relative to the sum of carvacrol and the additive is ethanol. Amounts are given in vol.-%.

[3] = Solubilities of clotrimazole and testosterone in different solvents; settings: for Solubilities in solvents with compounds employed according to the invention, compared with other solvents: Table II; for solubility: organic solvent or mixture
[4] = additive Ethylmethyl ketone 10%
[5] = additive Ethylmethyl ketone 20%
[6] = additive Isopropyl myristate 10%
[7] = additive Isopropyl myristate 20%
[8] = additive Propylene carbonate 10%
[9] = additive Propylene carbonate 20%
[10] = additive Propylene glycol 10%/menthol 5%
[11] = additive Propylene glycol 20%/menthol 10%
[12] = solvent: Carvacrol/Liqui-Patch (1:1), volume proportions

CC1=CC(=O)C(C(C)C)=CC1=O [Thymoquinone]
Dissolved amount ([1]; solvent: Carvacrol): >100 mg/mL

O=c1[nH]cc(F)c(=O)[nH]1 [5-Fluorouracil]
Dissolved amount ([1]; solvent: Carvacrol): 25 mg/mL

CN1C2CCCC1CC(NC(=O)c1nn(C)c3ccccc13)C2 (stereo not drawn) [Granisetron]
Dissolved amount ([1]; solvent: Carvacrol 62.5% Methanol 31.25% 2M NaOH/H2O 6.25%): 71.25 mg/mL

O=c1ccc2ccccc2o1 [Coumarin]
Dissolved amount ([1]; solvent: Carvacrol): >200 mg/mL

Cc1ccc(C(C)C)cc1O [carvacrol]
V.C. 30 min. (volatile carvacrol) [2, 4]: 33%
V.C. 3 h (volatile carvacrol) [2, 4]: 100%
V.C. 30 min. (volatile carvacrol) [2, 5]: 45%
V.C. 3 h (volatile carvacrol) [2, 5]: 100%
V.C. 30 min. (volatile carvacrol) ([2]; additive Glycerol 10%): 28%
V.C. 3 h (volatile carvacrol) ([2]; additive Glycerol 10%): 96%
V.C. 30 min. (volatile carvacrol) ([2]; additive Glycerol 20%): 33%
V.C. 3 h (volatile carvacrol) ([2]; additive Glycerol 20%): 88%
V.C. 30 min. (volatile carvacrol) [2, 6]: 26%
V.C. 3 h (volatile carvacrol) [2, 6]: 46%
V.C. 30 min. (volatile carvacrol) [2, 7]: 24%
V.C. 3 h (volatile carvacrol) [2, 7]: 32%
V.C. 30 min. (volatile carvacrol) [2, 8]: 29%
V.C. 3 h (volatile carvacrol) [2, 8]: 49%
V.C. 30 min. (volatile carvacrol) [2, 9]: 11%
V.C. 3 h (volatile carvacrol) [2, 9]: 24%
V.C. 30 min. (volatile carvacrol) [2, 10]: 40%
V.C. 3 h (volatile carvacrol) [2, 10]: 97%
V.C. 30 min. (volatile carvacrol) ([2]; additive Propylene glycol 10%): 40%
V.C. 3 h (volatile carvacrol) ([2]; additive Propylene glycol 10%): 51%
V.C. 30 min. (volatile carvacrol) [2, 11]: 0%
V.C. 3 h (volatile carvacrol) [2, 11]: 46%
V.C. 30 min. (volatile carvacrol) ([2]; additive Propylene glycol 20%): 1%
V.C. 3 h (volatile carvacrol) ([2]; additive Propylene glycol 20%): 33%
V.C. 30 min. (volatile carvacrol) ([2]; additive Water 10%): 18%
V.C. 3 h (volatile carvacrol) ([2]; additive Water 10%): 94%
V.C. 30 min. (volatile carvacrol) ([2]; additive Water 20%): 0%
V.C. 3 h (volatile carvacrol) ([2]; additive Water 20%): 94%
Volatility of carvacrol ([2]; by propylene carbonate, propylene glycol, or isopropyl myristate as additive): reduced

CC(=O)N1CCN(c2ccc(OCC3COC(Cn4ccnc4)(c4ccc(Cl)cc4Cl)O3)cc2)CC1 (stereo not drawn) [Ketoconazole]
Dissolved amount ([1]; solvent: Carvacrol): 140 mg/mL

O=c1oc2c(O)c(O)cc3c(=O)oc4c(O)c(O)cc1c4c23 [Ellagic acid]
Dissolved amount ([1]; solvent: Carvacrol): 60 mg/mL

Clc1ccccc1C(c1ccccc1)(c1ccccc1)n1ccnc1 [Clotrimazole]
Solubilities in solvents with compounds employed according to the invention, compared with other solvents [3]: considerably higher
Dissolved amount ([1]; solvent: Carvacrol): 410 mg/mL

Nc1cc(=O)[nH]c(=O)[nH]1 [6-Aminouracil]
Dissolved amount ([1]; solvent: Carvacrol): <50 mg/mL

CCCCCCCCCCCC(=O)O [Lauric acid]
Dissolved amount ([1]; solvent: Carvacrol): 500 mg/mL
Dissolved amount [1, 12]: 250 mg/mL

O=C(O)c1cc(=O)c2c(OCC(O)COc3cccc4oc(C(=O)O)cc(=O)c34)cccc2o1 [Cromoglicic acid-Na, Cromoglicic acid disodium salt]
Dissolved amount ([1]; solvent: Carvacrol): 50 mg/mL

O=C(O)c1ccccc1O [Salicylic acid]
Dissolved amount ([1]; solvent: Carvacrol/Methanol (1:1), volume proportions): 240 mg/mL

C[C@]12CC[C@H]3[C@@H](CCC4=CC(=O)CC[C@@]43C)[C@@H]1CC[C@@H]2O [Testosterone]
Solubilities in solvents with compounds employed according to the invention, compared with other solvents [3]: considerably higher
solubility ([3]; solvent: 4-Methyl-Anisole): < 250 mg/mL
solubility ([3]; solvent: 20% 4MS/80% EtOH): 335 mg/mL (≈ 1160 mM)
solubility ([3]; solvent: 20% (S)-(—)-Limonene/80% Ethanol): 200 mg/mL (≈ 693 mM)
solubility ([3]; solvent: 20% Anisole/80% EtOH): 500 mg/mL (≈ 1730 mM)
solubility ([3]; solvent: 20% Carvacrol/80% Acetone): 170 mg/mL (≈ 589 mM)
solubility ([3]; solvent: 20% Carvacrol/80% EtOH): 260 mg/mL (≈ 901 mM)
solubility ([3]; solvent: 20% Carvacrol/80% LP (Liqui-Patch)): 250 mg/mL (≈ 867 mM)
solubility ([3]; solvent: 20% Gamma-Terpinene/80% ethalol): 200 mg/mL (≈ 693 mM)
solubility ([3]; solvent: 20% Guaiacol/80% EtOH): 300 mg/mL (≈ 1040 mM)
solubility ([3]; solvent: 20% Guaiacol/80% LP (Liqui-Patch)): 270 mg/mL (≈ 936 mM)
solubility ([3]; solvent: 20% Thymol/80% Acetone): 180 mg/mL (≈ 624 mM)
solubility ([3]; solvent: 20% Thymol/80% EtOH): 330 mg/mL (≈ 1140 mM)
solubility ([3]; solvent: 20% Thymol/80% LP (Liqui-Patch)): 300 mg/mL (≈ 1040 mM)
solubility ([3]; solvent: 20% p-Cymene/80% Ethanol): 300 mg/mL (≈ 1040 mM)
solubility ([3]; solvent: (S)-(—)-Limonene): < 100 mg/mL
solubility ([3]; solvent: Acetone): 60 mg/mL (≈ 208 mM)
solubility ([3]; solvent: Anisole): < 100 mg/mL
solubility ([3]; solvent: Ethanol): 90 mg/mL (≈ 312 mM)
solubility ([3]; solvent: Gamma-Terpinene): < 100 mg/mL
solubility ([3]; solvent: Guaiacol): 270 mg/mL (≈ 936 mM)
solubility ([3]; solvent: LP (Liqui-Patch)): 190 mg/mL (≈ 659 mM)
solubility ([3]; solvent: Methyl salicylate (4MS)): < 100 mg/mL
solubility ([3]; solvent: carvacrol): 230 mg/mL (≈ 797 mM)
solubility ([3]; solvent: p-Cymene): < 100 mg/mL
Dissolved amount ([1]; solvent: Carvacrol): 220 mg/mL

O=c1[nH]c(=O)c2[nH]c(=O)[nH]c2[nH]1 [Uric acid]
Dissolved amount ([1]; solvent: Carvacrol): <20 mg/mL

Cl.Cl.Fc1ccc(C(c2ccc(F)cc2)N2CCN(C/C=C/c3ccccc3)CC2)cc1 [Flunarizine*2HCl]
Dissolved amount ([1]; solvent: Carvacrol): 60 mg/mL

C=C(c1ccc(C(=O)O)cc1)c1cc2c(cc1C)C(C)(C)CCC2(C)C [Bexarotene]
Dissolved amount ([1]; solvent: Carvacrol): 60 mg/mL
Dissolved amount [1, 12]: 30 mg/mL

CN(C/C=C/C#CC(C)(C)C)Cc1cccc2ccccc12 [Terbinafine]
Dissolved amount ([1]; solvent: Thymol/Ethanol (1:1)): 406 mg/mL

O=C(CCCN1CCC(O)(c2ccc(Cl)cc2)CC1)c1ccc(F)cc1 [Haloperidol]
Dissolved amount ([1]; solvent: Carvacrol): 100 mg/mL

CCn1cc(C(=O)O)c(=O)c2ccc(C)nc21 [Nalidixic Acid]
Dissolved amount ([1]; solvent: Carvacrol): 108 mg/mL

CC[C@H]1OC(=O)[C@H](C)[C@@H](O[C@H]2C[C@@](C)(OC)[C@@H](O)[C@H](C)O2)[C@H](C)[C@@H](O[C@@H]2O[C@H](C)C[C@H](N(C)C)[C@H]2O)[C@](C)(O)C[C@@H](C)C(=O)[C@H](C)[C@@H](O)[C@]1(C)O [Erythromycin]
Dissolved amount ([1]; solvent: Carvacrol): 110 mg/mL

Oc1cccc2cccnc12 [8-Hydroxyquinoline]
Dissolved amount ([1]; solvent: Carvacrol): >100 mg/mL

COc1cc(/C=C/C(=O)CC(=O)/C=C/c2ccc(O)c(OC)c2)ccc1O [Curcumin]
Dissolved amount ([1]; solvent: Carvacrol): 20 mg/mL

From patent publication US20160317661A1, “DERMAL AND/OR TRANSDERMAL PHARMACEUTICAL COMPOSITION CONTAINING A TERPENOID COMPOUND” (EPINAMICS GMBH, priority 2013, published 2016)
